The assay deals with T1, Nox4 (Homo sapiens, UniProt Q9NPH5).
T1 construct: Plasmids encoding full-length human cDNAs for Nox1 (pcDNA3.1-hNox1), NOXO1 (pcDNA3.1-hNOXO1), NOXA1 (pCMVsport 6-hNOXA1), p47phox (pCMV-Tag4A-hp47) and Nox4 (pcDNA3-hNox4); expressed in transfected cells; host or cells: COS-22 (COS-7 stably expressing human p22phox), transient transfection with pcDNA3.1/Hygro-hNox4
T1 sequence (Q9NPH5 1-578): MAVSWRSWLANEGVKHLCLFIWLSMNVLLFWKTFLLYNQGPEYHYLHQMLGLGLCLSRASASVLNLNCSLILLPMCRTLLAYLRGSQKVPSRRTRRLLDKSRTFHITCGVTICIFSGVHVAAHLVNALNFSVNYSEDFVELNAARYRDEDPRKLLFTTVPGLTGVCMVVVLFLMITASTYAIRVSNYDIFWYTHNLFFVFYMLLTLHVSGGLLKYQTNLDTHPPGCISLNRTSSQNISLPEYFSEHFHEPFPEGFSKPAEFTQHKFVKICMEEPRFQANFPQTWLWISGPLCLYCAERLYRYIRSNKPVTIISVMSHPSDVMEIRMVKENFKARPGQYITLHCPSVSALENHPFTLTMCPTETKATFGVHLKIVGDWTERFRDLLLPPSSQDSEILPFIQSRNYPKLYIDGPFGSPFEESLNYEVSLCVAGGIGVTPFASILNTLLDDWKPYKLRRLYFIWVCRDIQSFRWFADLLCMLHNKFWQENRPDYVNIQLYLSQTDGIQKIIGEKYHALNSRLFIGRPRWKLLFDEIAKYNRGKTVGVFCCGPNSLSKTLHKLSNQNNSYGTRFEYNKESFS
T1 sequence (P13498 2-195 partner limits assumed): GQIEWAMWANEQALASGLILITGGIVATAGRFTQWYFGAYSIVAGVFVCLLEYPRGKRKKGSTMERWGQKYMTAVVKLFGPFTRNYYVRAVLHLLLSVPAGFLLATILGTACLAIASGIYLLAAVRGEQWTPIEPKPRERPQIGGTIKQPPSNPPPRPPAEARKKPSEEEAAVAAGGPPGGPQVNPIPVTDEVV
In words: Constitutive Nox4 activity in transiently transfected COS-Nox4 cells, Amplex Red assay. It counts as cell-based. Particulars: for Nox4 inhibitory activity: COS-Nox4 cells; for IC50: constitutive activity, transiently transfected COS-Nox4 cells, read-out: IC50 of ROS generation, Nox4 (Amplex Red assay). From the text: Plasmids encoding full-length human cDNAs for Nox1 (pcDNA3.1-hNox1), NOXO1 (pcDNA3.1-hNOXO1), NOXA1 (pCMVsport 6-hNOXA1), p47phox (pCMV-Tag4A-hp47) and Nox4 (pcDNA3-hNox4) were kindly provided by Dr. David Lambeth (Emory University, Ga.). Plasmids encoding Nox1, NOXO1, or NOXA1 were transformed and amplified into Escherichia coli strain TOP10 (Invitrogen, Carlsbad, Calif.). Plasmids were purified using a QIAfilter plasmid purification kit (QIAGEN Inc., Valencia, Calif.). For human Nox4 expression, the BglII/NotI restriction fragment from the pcDNA3-hNox4 was subcloned into the plasmid pcDNA3.1/Hygro(−) (Invitrogen, Carlsbad, Calif.) to generate pcDNA3.1/Hygro-hNox4. The fragment sequence, in-frame insertion and orientation were validated by DNA sequencing after PCR amplification. pcDNA3.1/Hygro-hNox4 was amplified into Escherichia coli strain TOP10 and purified with a QIAfilter plasmid purification kit.
Cell transfection was carried out using Lipofectamine LTX and Plus reagent (Invitrogen, Carlsbad, Calif., USA), according to the manufacturer's instructions. COS-22 cells were transiently co-transfected with pcDNA 3.1-hNox1, pCMVsport 6-hNOXA1 and pcDNA3.1-hNoxO1 (COS-Nox1/NOXO1/NOXA1 cells) or with pcDNA3.1/Hygro-hNox4 (COS-Nox4 cells). Cells were used 24 hr after transfection. Adherent cells were harvested by incubating with 0.05% trypsin/EDTA for 5 min at 37° C. Following addition of DMEM/10% FBS to neutralize the trypsin, the cells were pelleted by centrifugation at 1100×g for 5 min at 4° C. and used for the experiments.
H2O2 production was quantified in intact COS-Nox4 cells by Amplex® Red. Briefly, COS-Nox4 cells (5×10^4 cells/ml) were re-plated into 384-well plate in assay buffer (25 mM Hepes, pH 7.4, containing 0.12 M NaCl, 3 mM KCl, 1 mM MgCl2). The cells were incubated in the presence or absence of drugs at 37° C. in assay buffer supplemented with 0.1 mM Amplex® Red, and 0.32 U/ml of horse radish peroxidase (HRP) for 15 min. Fluorescence measurements were made using a Biotek Synergy 4 Hybrid Multi-Mode Microplate Reader with a 530/25-excitation and a 590/35-emission filter. The reaction was monitored at 37° C. for 1 h. A standard curve of known H2O2 concentrations was included on each plate. Nox4 activity was obtained by calculating the rate of H2O2 production as RFU/min and then subtracting the equivalent value given by non-transfected COS-22 cells. Similarly, H2O2 production by Nox2 cells was also measured by Amplex® Red as described above but in the presence of 150 U/mL of SOD and the reaction was initiated by addition of 5 μM PMA. The rate of H2O2 production in this case was calculated as RFU/min after the subtraction of the equivalent value given by non-stimulated cells. Data are expressed as % of vehicle control.
All data are expressed as means±SEM. IC50 values were determined using the GraphPad Prism software (GraphPad Software, San Diego, Calif.) for non-linear regression three-parameters, with constrain values of 100 and 0 for top and bottom, respectively, and assumes a Hill slope of 1.

Some results are limits rather than exact numbers.

`C=C(C)CC1NC2CC(C)(C)C1c1c(Br)cccc12` (racemic) [Compound 7, (±)-(1S,4R,9S)-5-Bromo-3,3-dimethyl-9-(2-methylallyl)-1,2,3,4-tetrahydro-1,4-(epimino-methano)-naphthalene]: the “Nox4 inhibitory activity” value was “inactive” and the IC50 is > 100 µM.

Regarding `C=C(C)CC1NC2CC(C)(C)C1c1ccccc12` (racemic) [Compound 8, (±)-(1S,4R,9S)-3,3-Dimethyl-9-(2-methylallyl)-1,2,3,4-tetrahydro-1,4-(epiminomethano)-naphthalene], the “Nox4 inhibitory activity” value was “inactive”.

As for `C=C(C)CC1C2c3ccccc3C(CC2(C)C)N1Cc1cccc(F)c1` (racemic) [Compound 11a, (±)-(1S,4R,9S)-10-(3-Fluorobenzyl)-3,3-dimethyl-9-(2-methylallyl)-1,2,3,4-tetrahydro-1,4-(epiminomethano)naphthalene], the IC50 is > 100 µM.

As for `C=C(C)CC1C2c3c(Br)cccc3C(CC2(C)C)N1Cc1ccc2c(c1)OCO2` (racemic) [Compound 11d, (±)-(1S,4R,9S)-10-(Benzo[d][1,3]dioxol-5-ylmethyl)-5-bromo-3,3-dimethyl-9-(2-methylallyl)-1,2,3,4-tetrahydro-1,4-(epiminomethano)naphthalene], the IC50 is > 100 µM.

As for `C=C(C)CC1C2c3c(Br)cccc3C(CC2(C)C)N1Cc1cc(C)on1` (racemic) [Compound 11e, (±)-3-(1S,4R,9S)-5-Bromo-3,3-dimethyl-9-(2-methylallyl)-1,2,3,4-tetrahydro-1,4-(epimino-methano) naphthalen-10-yl)methyl)-5-methylisoxazole], the IC50 was > 100 µM.

In the case of `C=C(C)CC1C2c3c(Br)cccc3C(CC2(C)C)N1Cc1cccc(F)c1` (racemic) [Compound 11f, (±)-(1S,4R,9S)-5-Bromo-10-(3-fluorobenzyl)-3,3-dimethyl-9-(2-methylallyl)-1,2,3,4-tetrahydro-1,4-(epiminomethano)naphthalene], the IC50 was > 100 µM.

Consider `C=C(C)CC1C2c3c(Br)cccc3C(CC2(C)C)N1CCCCC` (racemic) [Compound 11g, (±)-(1S,4R,9S)-5-Bromo-3,3-dimethyl-9-(2-methylallyl-10-pentyl-1,2,3,4-tetrahydro-1,4-(epiminomethano)naphthalene], for which the “Nox4 inhibitory activity” value is “virtually no effect” and the IC50 was > 100 µM.

For the compound `C=C(C)CC1C2c3c(Br)cccc3C(CC2(C)C)N1Cc1cccs1` (racemic) [Compound 11h, (±)-(1S,4R,9S)-5-Bromo-3,3-dimethyl-9-(2-methylallyl)-10-(thiophen-2-ylmethyl)-1,2,3,4-tetrahydro-1,4-(epiminomethano)naphthalene], the “Nox4 inhibitory activity” value is “virtually no effect”.

Consider `C=C(C)CC1NC2CC(C)(C)C1c1c(-c3ccc(Cl)c(Cl)c3)cccc12` (racemic) [Compound 12a, (±)-(1S,4R,9S)-5-(3,4-Dichlorophenyl)-3,3-dimethyl-9-(2-methylallyl)-1,2,3,4-tetrahydro-1,4-(epiminomethano)naphthalene], for which the IC50 is > 100 µM.

As for `C=C(C)CC1C2c3c(-c4ccc(Cl)c(Cl)c4)cccc3C(CC2(C)C)N1CCCCC` (racemic) [Compound 12c], the IC50 is > 100 µM.

For the compound `CC(C)CC1NC2CC(C)(C)C1c1c(Br)cccc12` (racemic) [Compound 13], the IC50 is > 100 µM.

For `C=C(C)CC1C2c3c(Br)cccc3C(CC2(C)C)N1S(C)(=O)=O` (racemic) [Compound 14a, (±)-(1S,4R,9S)-5-Bromo-3,3-dimethyl-9-(2-methylallyl)-10-(methylsulfonyl)-1,2,3,4-tetrahydro-1,4-(epiminomethano)naphthalene], the IC50 is > 100 µM.

The values above are taken from patent publication US10906876B2, “Tetrahydroisoquinolines as selective NADPH oxidase 2 inhibitors” (University of Pittsburgh—Of the Commonwealth System of …, priority 2013, dated 2021).
